Test results reported in patent US11472778B2, “Hepatitis C virus NS3/4A protease inhibitors” (priority 2017, dated 2022).
Like-named read-outs stand apart in the source and are kept apart here.

Assays:
[1] = system: HCV replicon D168V variant in Huh7 cells; experiment: microbe, parasite or virus in culture; assay type: cell-based, Hepatitis C virus; conditions: for EC50: Hepatitis C virus; for Replicon EC50 (Fold change) D168V: Table 4, relative to WT replicon
Method: (§1) Mutations (R155K, A516T, D168A and D168V) were constructed by site-directed mutagenesis using a Con1 (genotype 1b) luciferase reporter replicon containing the H77 (genotype 1a) NS3 sequence.
Replicon RNA of each protease variant was introduced into Huh7 cells by electroporation. Replication was then assessed in the presence of increasing concentrations of protease inhibitors by measuring luciferase activity (relative light units) 96 h after electroporation. […]

GT3a NS3/4A protease = target: T1, GT3a NS3/4A protease (Hepatitis C virus genotype 3a, UniProt Q81495); experiment: biochemical; conditions: for Ki (Fold change) GT3a NS3/4A Protease: Ki GT3a relative to GT1a WT
T1 construct: drug-resistant variant D168A, and GT3a NS3/4A protease; made in house; host or cells: Escherichia coli BL21(DE3)
Method: (§2) For each assay, 2 nM of NS3/4A protease (GT1, D168A and GT3) was pre-incubated at room temperature for 1 h with increasing concentration of inhibitors in assay buffer [50 mM Tris, 5% glycerol, 10 mM DTT, 0.6 mM LDAO, and 4% dimethyl sulfoxide]. Inhibition assays were performed in nonbinding surface 96-well black half-area plates (Corning) in a reaction volume of 60 μt. […] Three independent data sets were collected for each inhibitor with each protease construct.

[2] = system: wild-type HCV replicon in Huh7 cells; experiment: Cell-based drug susceptibility (replicon) assay, wild-type; conditions: Hepatitis C virus, read-out: Replicon EC50 (nM) WT
Method: as §1
(§3) Replicon RNA of each protease variant was introduced into Huh7 cells by electroporation. Replication was then assessed in the presence of increasing concentrations of protease inhibitors by measuring luciferase activity (relative light units) 96 h after electroporation.
(§4) Mutations (R155K, D168A and A156T) were constructed by site-directed mutagenesis using a Con1 (genotype 1b) luciferase reporter replicon containing the H77 (genotype 1a) NS3 sequence.^6 Replicon RNA of each protease variant was introduced into Huh7 cells by electroporation. Replication was then assessed in the presence of increasing concentrations of protease inhibitors by measuring luciferase activity (relative light units) 96 h after electroporation.

[3] = target: T2, wild-type GT1a NS3/4A protease (UniProt P27958, C1185S, species not given); assay type: biochemical, Hepatitis C virus; conditions: read-out: Ki (nM) GT1a WT NS3/4A Protease
T2 construct: Ki (nM) GT1a WT NS3/4A Protease
Method: as §2
as §2, with “(GT1a” for “(GT1, D168A”, “D168A)” for “GT3)”, “(50” for “[50”, “sulfoxide, pH 7.5).” for “sulfoxide].”, “non-binding” for “nonbinding”, “μL.” for “μt.”
(§5) For each assay, 2 nM of NS3/4A protease (GT1a, R155K and D168A) was pre-incubated at room temperature for 1 h with increasing concentration of inhibitors in assay buffer (50 mM Tris, 5% glycerol, 10 mM DTT, 0.6 mM LDAO, and 4% dimethyl sulfoxide, pH 7.5). Inhibition assays were performed in non-binding surface 96-well black half-area plates (Corning) in a reaction volume of 60 μL. […] Three independent data sets were collected for each inhibitor with each protease construct. […] Gibbs free energy of binding was calculated using the following equation: ΔG=RTlnKi

[4] = target: T3, GT1a D168A NS3/4A protease (UniProt P27958, C1185S/D1194A, species not given); assay type: biochemical, Hepatitis C virus; conditions: read-out: Ki (nM) GT1a D168A NS3/4A Protease
T3 construct: Ki (nM) GT1a D168A NS3/4A Protease
Method: as §2
(§6) For each assay, 2 nM of NS3/4A protease (GT1a and D168A) was pre-incubated at room temperature for 1 h with increasing concentration of inhibitors in assay buffer (50 mM Tris, 5% glycerol, 10 mM DTT, 0.6 mM LDAO, and 4% dimethyl sulfoxide, pH 7.5). Inhibition assays were performed in non-binding surface 96-well black half-area plates (Corning) in a reaction volume of 60 μL. […] Three independent data sets were collected for each inhibitor with each protease construct.
as §5

[5] = target: GT1a D168A NS3/4A protease; assay type: biochemical, Hepatitis C virus; conditions: Table 3; Ki D168A relative to GT1a WT
Method: as §2, §6, §5

[6] = system: HCV replicon R155K variant in Huh7 cells; experiment: microbe, parasite or virus in culture; assay type: cell-based, Hepatitis C virus; conditions: for EC50: Hepatitis C virus; for Replicon EC50 (Fold change) R155K: Table 4, relative to WT replicon
Method: as §1, §3, §4

[7] = system: HCV replicon A156T variant in Huh7 cells; experiment: microbe, parasite or virus in culture; assay type: cell-based, Hepatitis C virus; conditions: for EC50: Hepatitis C virus; for Replicon EC50 (Fold change) A156T: Table 4, relative to WT replicon
Method: as §1, §3, §4

[8] = system: HCV replicon D168A variant in Huh7 cells; experiment: microbe, parasite or virus in culture; assay type: cell-based, Hepatitis C virus; conditions: for EC50: Hepatitis C virus; for Replicon EC50 (Fold change) D168A: Table 4, relative to WT replicon
Method: as §1, §3, §4

[9] = Huh-7, 96 h, read-out: Replicon EC50 (nM) D168V, Table 2, Huh7 cells, luciferase 96 h
[10] = Huh-7, read-out: Replicon EC50 (nM) D168V, Table 4
[11] = Huh-7, 96 h, Table 2, Huh7 cells, luciferase 96 h
[12] = Huh-7, 96 h, read-out: Replicon EC50 (nM) R155K, Table 2, Huh7 cells, luciferase 96 h
[13] = Huh-7, read-out: Replicon EC50 (nM) R155K, Table 4
[14] = Huh-7, 96 h, read-out: Replicon EC50 (nM) A156T, Table 2, Huh7 cells, luciferase 96 h
[15] = Huh-7, read-out: Replicon EC50 (nM) A156T, Table 4
[16] = Huh-7, 96 h, read-out: Replicon EC50 (nM) D168A, Table 2, Huh7 cells, luciferase 96 h
[17] = Huh-7, read-out: Replicon EC50 (nM) D168A, Table 4

T1 sequence (Q81495 1033-1214): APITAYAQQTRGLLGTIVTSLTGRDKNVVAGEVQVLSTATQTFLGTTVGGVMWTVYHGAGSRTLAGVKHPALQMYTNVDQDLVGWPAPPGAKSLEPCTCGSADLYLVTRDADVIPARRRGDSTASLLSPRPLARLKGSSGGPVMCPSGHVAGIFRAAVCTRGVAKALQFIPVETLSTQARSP

| SMILES | EC50 [1, 9] [nM] | EC50 [1, 10] [nM] | Replicon EC50 (Fold change) D168V [1] | Ki (GT3a NS3/4A protease) [nM] | Ki (Fold change) GT3a NS3/4A Protease (GT3a NS3/4A protease; Table 3) | EC50 [2, 11] [nM] | EC50 ([2]; Huh-7, Table 4) [nM] | Ki ([3]; Table 1) [nM] | Ki ([3]; Table 3) [nM] | Ki ([4]; Table 1) [nM] | Ki ([4]; Table 3) [nM] | Ki (Fold change) GT1a D168A NS3/4A Protease [5] | EC50 [6, 12] [nM] | EC50 [6, 13] [nM] | Replicon EC50 (Fold change) R155K [6] | EC50 [7, 14] [nM] | EC50 [7, 15] [nM] | Replicon EC50 (Fold change) A156T [7] | EC50 [8, 16] [nM] | EC50 [8, 17] [nM] | other results |
| --- | --- | --- | --- | --- | --- | --- | --- | --- | --- | --- | --- | --- | --- | --- | --- | --- | --- | --- | --- | --- | --- |
| COc1ccc2nc(C(F)(F)F)c(O[C@@H]3C[C@H]4C(=O)N[C@]5(C(=O)NS(=O)(=O)C6CC6)C[C@H]5/C=C\CCCCC[C@H](NC(=O)OC(C)(C)C)C(=O)N4C3)nc2c1 [Compound 18d] | 17.1 | 17.1 | (9) fold | 344 | (26) fold | 1.98 | 1.98 | 13.3 | 13.3 | 157 | 157 ± 12 | (12) fold | 3.45 | 3.45 | (2) fold | 36.2 | 36.2 | (18) fold | 16.8 | 16.8 | Replicon EC50 (Fold change) D168A [8]: (8) fold |
| CCc1nc2ccc(OC)cc2nc1O[C@@H]1C[C@H]2C(=O)N[C@]3(C(=O)NS(=O)(=O)C4CC4)C[C@H]3/C=C\CCCCC[C@H](NC(=O)OC3CCCC3)C(=O)N2C1 [Compound 22a, Cyclopentyl ((2R,6S,13aS,14aR,16aS,Z)-14a-((cyclopropylsulfonyl)carbamoyl)-2-((3-ethyl-7-methoxyquinoxalin-2-yl)oxy)-5,16-dioxo-1,2,3,5,6,7,8,9,10,11,13a,14,14a,15,16,16a-hexadecahydrocyclopropa[e]pyrrolo[1,2-a][1,4]diazacyclopentadecin-6-yl)carbamate] | 11.9 | 11.9 | (85) fold | 211 | (170) fold | 0.14 | 0.14 | 1.24 | 1.24 | 52.3 | 52.3 ± 3.2 | (42) fold | 2.08 | 2.08 | (15) fold | 11.8 | 11.8 | (84) fold | 3.6 | 3.6 | Replicon EC50 (Fold change) D168A [8]: (26) fold |
| COc1ccc2nc(C)c(O[C@@H]3C[C@H]4C(=O)N[C@]5(C(=O)NS(=O)(=O)C6CC6)C[C@H]5/C=C\CCCCC[C@H](NC(=O)OC5CCCC5)C(=O)N4C3)nc2c1 [Compound 22b, Cyclopentyl ((2R,6S,13aS,14aR,16aS,Z)-14a-((cyclopropylsulfonyl)carbamoyl)-2-((7-methoxy-3-methylquinoxalin-2-yl)oxy)-5,16-dioxo-1,2,3,5,6,7,8,9,10,11,13a,14,14a,15,16,16a-hexadecahydrocyclopropa[e]pyrrolo[1,2-a][1,4]diazacyclopentadecin-6-yl)carbamate] | 4.32 | 4.32 | (39) fold | 147 | (158) fold | 0.11 | 0.11 | 0.93 | 0.93 | 31.9 | 31.9 ± 2.5 | (34) fold | 0.89 | 0.89 | (8) fold | 2.88 | 2.88 | (26) fold | 2.63 | 2.63 | Replicon EC50 (Fold change) D168A [8]: (24) fold |
| COc1ccc2nc(C(F)(F)F)c(O[C@@H]3C[C@H]4C(=O)N[C@]5(C(=O)NS(=O)(=O)C6(C)CC6)C[C@H]5/C=C\CCCCC[C@H](NC(=O)OC5CCCC5)C(=O)N4C3)nc2c1 [Compound 23d, Cyclopentyl ((2R,6S,13aS,14aR,16aS,Z)-2-((7-methoxy-3-(trifluoromethyl)quinoxalin-2-yl)oxy)-14a-(((1-methylcyclopropyl)sulfonyl)carbamoyl)-5,16-dioxo-1,2,3,5,6,7,8,9,10,11,13a,14,14a,15,16,16a-hexadecahydrocyclopropa[e]pyrrolo[1,2-a][1,4]diazacyclopentadecin-6-yl)carbamate] | 11.4 | 11.4 | (3) fold | 433 | (53) fold | 4.04 | 4.04 | 8.14 | 8.14 | 110 | 110 ± 14 | (14) fold | 6.9 | 6.9 | (2) fold | 75.9 | 75.9 | (19) fold | 8.46 | 8.46 | Replicon EC50 (Fold change) D168A [8]: (2) fold |
| COc1ccc2nc(C(F)(F)F)c(O[C@@H]3C[C@H]4C(=O)N[C@]5(C(=O)NS(=O)(=O)C6(C)CC6)C[C@H]5/C=C\CCCCC[C@H](NC(=O)OC(C)(C)C)C(=O)N4C3)nc2c1 [Compound 19d, tert-Butyl ((2R,6S,13aS,14aR,16aS,Z)-2-((7-methoxy-3-(trifluoromethyl)quinoxalin-2-yl)oxy)-14a-(((1-methylcyclopropyl)sulfonyl)carbamoyl)-5,16-dioxo-1,2,3,5,6,7,8,9,10,11,13a,14,14a,15,16,16a-hexadecahydrocyclopropa[e]pyrrolo[1,2-a][1,4]diazacyclopentadecin-6-yl)carbamate] | 8.31 | 8.31 | (5) fold | 231 | (40) fold | 1.52 | 1.52 | 5.77 | 5.77 | 118 | 118 ± 13 | (20) fold | 2.3 | 2.3 | (2) fold | 20.5 | 20.5 | (13) fold | 8.64 | 8.64 | Ki (GT3a NS3/4A protease; read-out: Ki (nM) GT3a NS3/4A Protease, Table 3): 231 ± 74 nM; Replicon EC50 (Fold change) D168A [8]: (6) fold |
